Data as given in US6352959B1, “Thiochromanoylpyrazolone derivatives” (BASF Aktiengesellschaft, priority 1998, dated 2002).

Key:
Polygonum persicaria = assay: greenhouse herbicidal test; format: in vivo; details: rate and mode not restated in the sentence
From the text: (§1) The seeds of the test plants were sown separately for each species. For the post-emergence treatment, the test plants were first grown to a plant height of from 3 to 15 cm, depending on the plant habit, and only then treated with the active ingredients which had been suspended or emulsified in water. For this purpose, the test plants were either sown directly and grown in the same containers, or they were first grown separately as seedlings and transplanted into the test containers a few days prior to treatment. The application rate for the post-emergence treatment was 0.25 or 0.125 kg of a.s. (active substance) per ha. Depending on the species, the plants were kept at from 10 to 25° C. or from 20 to 35° C. The test period extended over 2 to 4 weeks. During this time, the plants were tended and their response to the individual treatments was evaluated. Evaluation was carried out using a scale from 0 to 100. 100 means no emergence of the plants, or complete destruction of at least the above-ground parts, and 0 means no damage or normal course of growth. [table]

Sinapis alba = assay: greenhouse herbicidal test; format: in vivo; details: rate and mode not restated in the sentence
From the text: as §1

Setaria viridis = assay: greenhouse herbicidal test; format: in vivo; details: rate and mode not restated in the sentence
From the text: as §1

Avena fatua = assay: greenhouse herbicidal test; format: in vivo; details: rate and mode not restated in the sentence
From the text: as §1

## CCCOCc1c(C(=O)c2cnn(C)c2O)ccc2c1S(=O)(=O)CCC2(C)C [Compound 2.17, 4-{[4,4-Dimethyl-8-propoxymethyl-1,1-dioxothiochroman-7-yl]-carbonyl}-5-hydroxy-1-methylpyrazole]
Polygonum persicaria
  activity against the weed: very good activity
Sinapis alba
  activity against the weed: very good activity
Setaria viridis
  activity against the weed: very good activity
Avena fatua
  activity against the weed: very good activity
other
  melting point: 84 °C
